In ChEMBL document CHEMBL1201862, “PubChem BioAssay data set” (2004):
Calls of active or inactive are those of the source.

Assays:
[1] = molecular target: 5-hydroxytryptamine receptor 2A (Mus musculus, UniProt P35363); assay type: functional, cell-based;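 further: CHO-K1 cells with tagged receptor and beta-arrestin; agonist potency measured as compound-induced activation of the receptor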
Mu-type opioid receptor = Mu-type opioid receptor (Homo sapiens, UniProt P35372); assay type: functional, cell-based;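 further: U2OS cells with beta-arrestin recruitment to OPRM1 by beta-gal complementation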
[2] = molecular target: T1, Small ubiquitin-related modifier 1 (Homo sapiens, UniProt P63165); test: inhibitors of SUMO1 peptide binding, dose response, biochemical, fluorescence polarization, uHTS hits (AID 624382); assay type: functional; settings: read-out: IC50_Mean
[3] = molecular target: T1, Small ubiquitin-related modifier 1; test: inhibitors of SUMO1 partner interactions, dose response, biochemical, FRET (AID 624383); assay type: functional; settings: read-out: IC50_Mean
[4] = molecular target: T2, Corticotropin-releasing factor receptor 2/Corticotropin-releasing factor-binding protein (Homo sapiens, UniProt P24387+Q13324); test: activators of CRF receptor 2 with binding protein – uHTS hits, confirmation (AID 602473); assay type: functional; settings: read-out: EC50_Mean
T2 sequence (Q13324 whole entry): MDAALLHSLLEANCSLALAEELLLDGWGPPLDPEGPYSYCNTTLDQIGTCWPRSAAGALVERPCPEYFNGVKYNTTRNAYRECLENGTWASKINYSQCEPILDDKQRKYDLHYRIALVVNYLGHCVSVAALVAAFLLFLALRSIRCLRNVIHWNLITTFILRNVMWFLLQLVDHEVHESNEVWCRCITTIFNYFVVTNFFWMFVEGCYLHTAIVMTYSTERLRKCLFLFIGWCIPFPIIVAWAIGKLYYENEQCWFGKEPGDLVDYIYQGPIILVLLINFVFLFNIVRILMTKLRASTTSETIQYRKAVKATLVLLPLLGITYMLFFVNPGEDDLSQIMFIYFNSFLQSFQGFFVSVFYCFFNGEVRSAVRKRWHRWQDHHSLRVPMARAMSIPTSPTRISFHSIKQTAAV
T2 sequence (P24387 whole entry): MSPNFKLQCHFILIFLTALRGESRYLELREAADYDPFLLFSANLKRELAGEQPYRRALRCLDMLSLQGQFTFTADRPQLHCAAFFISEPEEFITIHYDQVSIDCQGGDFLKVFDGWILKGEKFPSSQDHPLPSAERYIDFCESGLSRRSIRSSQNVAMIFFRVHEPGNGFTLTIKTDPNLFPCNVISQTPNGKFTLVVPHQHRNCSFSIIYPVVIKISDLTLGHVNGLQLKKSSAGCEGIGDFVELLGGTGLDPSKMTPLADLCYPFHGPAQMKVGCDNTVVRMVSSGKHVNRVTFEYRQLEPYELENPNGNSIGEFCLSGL

[5] = Counterscreen for activators of the function of SWI/SNF related, matrix associated, actin dependent regulator of chromatin, subfamily a, member 2 (SMARCA2, BRM): Luminescence-based cell-based high throughput dose response assay to identify non-selective compounds using the VP16 reporter assay.; assay type: functional
Cytochrome P450 2C19 = Cytochrome P450 2C19 (Homo sapiens, UniProt P33261); test: Cytochrome panel assay with activity outcomes. Panel member name: p450-cyp2c19 Compounds with AC50 equal or less than 10 uM are considered active; assay type: functional; settings: read-out: AC50
[6] = molecular target: SWI/SNF-related matrix-associated actin-dependent regulator of chromatin subfamily A member 2 (Homo sapiens, UniProt P51531); test: Luminescence-based cell-based high throughput dose response assay to identify activators of the function of SWI/SNF related, matrix associated, actin dependent regulator of chromatin, subfamily a, member 2 (SMARCA2, BRM).; assay type: functional
[7] = molecular target: T3, Heat shock factor protein 1 (Mus musculus, UniProt P38532); test: HSF1 potentiators in luciferase reporter cells, confirmation, cell-based, NIH3T3, luminescence, dose retest (AID 435004); assay type: functional;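 further: stress induced by proteasome inhibitor MG132 added 30 min after compound; luciferase reporter driven by HSF1 response element in NIH3T3 cells; actives raise luminescence as potentiators of the MG132 stress response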
T3 sequence (P38532 whole entry): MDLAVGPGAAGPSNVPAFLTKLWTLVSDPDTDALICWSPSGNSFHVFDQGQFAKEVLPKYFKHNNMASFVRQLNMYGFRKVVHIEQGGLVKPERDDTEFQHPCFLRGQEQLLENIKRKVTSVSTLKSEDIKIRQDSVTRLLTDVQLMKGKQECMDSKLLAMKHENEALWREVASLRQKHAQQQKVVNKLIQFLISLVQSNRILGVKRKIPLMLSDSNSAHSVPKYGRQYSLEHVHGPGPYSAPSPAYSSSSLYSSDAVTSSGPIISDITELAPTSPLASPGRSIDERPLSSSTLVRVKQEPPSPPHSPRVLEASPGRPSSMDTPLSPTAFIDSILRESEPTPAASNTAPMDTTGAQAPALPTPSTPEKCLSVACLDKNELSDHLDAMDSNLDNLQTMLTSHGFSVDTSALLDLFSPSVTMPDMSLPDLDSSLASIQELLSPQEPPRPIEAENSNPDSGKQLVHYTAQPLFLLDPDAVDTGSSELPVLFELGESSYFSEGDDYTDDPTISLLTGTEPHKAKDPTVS

fMet-Leu-Phe receptor = fMet-Leu-Phe receptor (Homo sapiens, UniProt P21462); test: FPR ligands, dose response (AID 519); assay type: functional
[8] = Shn3 3'UTR reporter inhibitors, dose response, cell-based, Clone20 osteoblasts, firefly luciferase, cherry-picked (AID 624132); assay type: functional;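 further: firefly luciferase luminescence from reporter carrying the Shn3 3'UTR in osteoblasts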
[9] = reduction of Shn3 3'UTR firefly luciferase signal, dose response, Schnurri-3 inhibitor project, cell-based, Clone20 osteoblasts, cherry-pick, set 2 (AID 720490); assay type: functional;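 further: actives lower the luminescence signal as inhibitors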
[10] = control 3'UTR Renilla luciferase suppression, dose response, counter-screen for Shn3 inhibitor project, cell-based, Clone20-Shn3RL, cherry-picked (AID 624133); assay type: functional
[11] = HepG2 cell cytotoxicity, dose response, cytotoxicity control for Shn3 inhibitor project, CellTiter-Glo, cherry-picked (AID 624134); assay type: functional, cell-based
Caspase-6 = Caspase-6 (Homo sapiens, UniProt P55212); test: human caspase-6 inhibitors, dose response, biochemical, VEID-R110 fluorescence, cherry-pick (AID 720632)
Major prion protein = Major prion protein (Homo sapiens, UniProt P04156); assay type: functional, cell-based
Albumin = Albumin (Bos taurus, UniProt P02769); test: Counterscreen for inhibitors of T-cell receptor (TCR)-CD3 interaction: Fluorescence-based biochemical high throughput dose response assay to identify inhibitors of T-cell receptor (TCR)-CD3 interaction using a TAMRA-labeled BSA probe.; assay type: functional
A549 = test: A549 cell toxicity, dose response, cytotoxicity control, plate reader, cherry-pick samples (AID 687028); assay type: functional, cell-based; settings: Homo sapiens
[12] = molecular target: T4, Rac GTPase-activating protein 1 (Homo sapiens, UniProt Q9H0H5); test: MgcRacGAP GTPase-activating activity inhibitors, confirmation, biochemical, ADP Hunter fluorescence, primary and confirmatory (AID 624330); assay type: functional
T4 sequence (Q9H0H5 whole entry): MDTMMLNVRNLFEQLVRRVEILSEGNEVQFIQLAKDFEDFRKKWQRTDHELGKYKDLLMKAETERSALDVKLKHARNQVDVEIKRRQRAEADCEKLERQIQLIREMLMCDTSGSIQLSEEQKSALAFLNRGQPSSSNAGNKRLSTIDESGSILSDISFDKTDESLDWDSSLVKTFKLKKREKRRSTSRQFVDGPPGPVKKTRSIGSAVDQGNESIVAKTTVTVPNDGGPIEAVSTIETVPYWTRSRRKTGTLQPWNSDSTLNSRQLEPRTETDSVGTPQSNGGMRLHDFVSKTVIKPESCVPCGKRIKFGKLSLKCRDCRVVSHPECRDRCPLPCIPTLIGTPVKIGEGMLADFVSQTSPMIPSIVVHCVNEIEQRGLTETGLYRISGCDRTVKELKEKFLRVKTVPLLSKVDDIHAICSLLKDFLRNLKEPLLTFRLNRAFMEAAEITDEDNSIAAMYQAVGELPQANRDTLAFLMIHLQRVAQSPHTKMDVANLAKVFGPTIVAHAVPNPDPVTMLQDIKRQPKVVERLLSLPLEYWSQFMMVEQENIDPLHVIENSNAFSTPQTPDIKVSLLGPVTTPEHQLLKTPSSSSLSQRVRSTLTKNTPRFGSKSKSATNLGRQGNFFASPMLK

Large T antigen = Large T antigen (Simian virus 40, UniProt P03070); assay type: functional, Betapolyomavirus macacae;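 further: Confirmatory-stage PubChem screen for compounds that inhibit SV40 T antigen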
[13] = molecular target: FAD-linked sulfhydryl oxidase ALR (Homo sapiens, UniProt P55789); test: inhibitors of human ALR sulfhydryl oxidase, dose response, biochemical, H2O2 detection, luminescence, cherry-pick (AID 493248)
[14] = IGROV1 ovarian cancer cell cytotoxicity, dose response, PAX8 inhibitor project, plate reader, dry powder samples (AID 743043); assay type: functional, cell-based; settings: IGROV-1
Paired box protein Pax-8 = Paired box protein Pax-8 (Homo sapiens, UniProt Q06710); test: inhibitors of PAX8-driven TPO luciferase reporter, dose response, RMG-I cells, cherry-pick (AID 687027); assay type: functional, cell-based;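 further: luciferase reporter driven by Pax8 target thyroperoxidase promoter measured by SteadyGlo luminescence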
[15] = HEK293 cell viability, dose response, counter-screen for EBV LMP1 inhibitor project, dry powder, set 2 (AID 624374); assay type: functional
[16] = MITF Orthogonal Assay: SK-MEL-5 CTG Assay Measured in Cell-Based System Using Plate Reader - 2084-02_Inhibitor_Dose_DryPowder_Activity_Set7.; assay type: functional
[17] = TRPM1 promoter luciferase reporter signal decrease, dose response, MITF inhibitor project, cell-based, SK-MEL-5, dry powder, set 8 (AID 624430); assay type: functional
[18] = MITF: Counter assay: A375 proliferation Measured in Cell-Based System Using Plate Reader - 2084-03_Inhibitor_Dose_DryPowder_Activity_Set8.; assay type: functional; settings: A-375
[19] = HEK293T cytotoxicity, dose response, cytotoxicity control for miR-122 modulator project, cell-based, inhibitor set, cherry-pick, set 2 (AID 720697); assay type: functional
[20] = HEK293T cytotoxicity, dose response, cytotoxicity control for miR-122 modulator project, cell-based, activator set, cherry-pick (AID 720690); assay type: functional;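 further: HEK293T human cells scored for general mammalian cytotoxicity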

Cc1ccsc1CN1CCN(c2ccccn2)CC1
EC50 [1]: 0.282 µM (active) | EC50 (Mu-type opioid receptor): 92.5 µM (inactive)

COC(=O)c1ccc2c(c1)C(=O)/C(=C/c1ccc(O)cc1)O2
IC50 [2]: > 66.6 µM (inactive) | IC50 [3]: 7.4 µM (active) | EC50 [4]: > 53 µM (inactive)

Cc1cccc(NC(=O)c2ccc([N+](=O)[O-])o2)n1
EC50 [5]: > 91.1 µM (inactive) | AC50 (Cytochrome P450 2C19): 20 µM (inconclusive) | EC50 [6]: > 91.1 µM (inactive)

CC(CCc1ccccc1)NC(=O)CN1CCc2ccccc2C1 (centres undefined)
EC50 [7]: > 260 µM (inactive) | EC50 [1]: 76.1 µM (inactive) | EC50 (Mu-type opioid receptor): 92.5 µM (inactive)

COc1ccc(NC(=O)C2C(=O)NC3(C)CC2c2ccccc2O3)cc1 (centres undefined)
Ki (fMet-Leu-Phe receptor): > 66.7 µM (inactive)

Cc1ccccc1OCCOC(=O)c1cc(S(=O)(=O)N2CCCCC2)ccc1N1CCOCC1
AC50 [8]: 3.79 µM (active) | AC50 [9]: 4.28 µM (active) | AC50 [10]: > 70 µM (inactive) | AC50 [11]: > 70 µM (inactive)

COc1cc(C2C(C(=O)c3ccc(C)o3)=C(O)C(=O)N2CCc2ccccc2)ccc1O (centres undefined)
AC50 (Cytochrome P450 2C19): 11.2 µM (inconclusive) | Ki (fMet-Leu-Phe receptor): 19.7 µM (inactive)

COc1ccc(CCNC(=O)COC(=O)c2ccc([N+](=O)[O-])o2)cc1
AC50 (Caspase-6): 24.1 µM (active)

COc1cccc(N2CC(=O)C(c3nc4ccccc4s3)=C2N)c1
IC50 (cells): > 138 µM (inactive) | IC50 (Major prion protein): 5.11 µM (active)

Nc1ccc([N+](=O)[O-])cc1C(=O)NNC(=O)c1ccco1
IC50 (Albumin): > 94.1 µM (inactive)

O=C(NCc1ccc2c(c1)OCO2)C(=O)NCC1OCCCN1S(=O)(=O)c1ccccc1 (centres undefined)
AC50 (A549): 27.9 µM (active)

COCOCCn1cc(CN2CCS(=O)(=O)N(Cc3ccc(-c4ccc(Cl)c(Cl)c4)cc3)C(C(C)C)C2=O)nn1 (centres undefined)
AC50 [8]: 1.35 µM (active) | AC50 [9]: 1.86 µM (active) | AC50 [10]: 7.09 µM (active) | AC50 [11]: > 70 µM (inactive)

Oc1ccc(/C=N/Nc2ncnc3c2ncn3Cc2ccccc2)cc1O
IC50 (Albumin): > 94.1 µM (inactive) | IC50 [12]: 23 µM (active) | IC50 (Large T antigen): 3.87 µM (active) | AC50 [13]: 2.19 µM (active)

CC(C)(C)NC(=O)C(c1cccc2ccccc12)n1c(=O)c(-c2ccccc2)nc2ccccc21 (centres undefined)
AC50 (A549): 8.91 µM (active)

C[C@@H]1CN([C@@H](C)CO)C(=O)Cc2cc(NS(=O)(=O)c3ccc(Cl)cc3)ccc2O[C@H]1CN(C)Cc1ccc(Cl)c(Cl)c1
AC50 [14]: 38.5 µM (active) | AC50 (Paired box protein Pax-8): 4.26 µM (active)

O=C(Cc1ccccn1)NCC[C@@H]1CC[C@@H](NC(=O)Nc2ccc(Cl)cc2)[C@H](CO)O1
AbsAC35 [15]: 175.41 µM

O=C1C(Nc2ccc(F)cc2F)=C(N2CCCCC2)C(=O)c2ccccc21
AC50 [16]: 3.64 µM (active) | AC50 [17]: 0.931 µM (active) | AC50 [18]: 21.8 µM (active)

CN1C(=O)c2cc(NC(=O)C3CC3)ccc2OC[C@H]2O[C@@H](CC(=O)O)CC[C@@H]21
AC50 (Caspase-6): 23.1 µM (active)

C[C@H](CO)N1C[C@H](C)[C@H](CN(C)Cc2ccccc2)Oc2cc(/C=C/c3ccccc3)ccc2S1(=O)=O
AC50 [19]: 34.5 µM (active) | AC50 [20]: 22.7 µM (active)

CCN1CCN(C2=C(Nc3ccc(OC)cc3)C(=O)c3ccccc3C2=O)CC1
AC50 [16]: 12.2 µM (active) | AC50 [17]: 6.87 µM (active) | AC50 [18]: > 70 µM (inactive)
